{"source": "paper PMC8054307", "about": "(The Journal of pharmacy and pharmacology, 2018)", "key": {"[1]": {"target": "human serum albumin (HSA) (Homo sapiens, UniProt P02768)", "sequence (P02768 25-609)": "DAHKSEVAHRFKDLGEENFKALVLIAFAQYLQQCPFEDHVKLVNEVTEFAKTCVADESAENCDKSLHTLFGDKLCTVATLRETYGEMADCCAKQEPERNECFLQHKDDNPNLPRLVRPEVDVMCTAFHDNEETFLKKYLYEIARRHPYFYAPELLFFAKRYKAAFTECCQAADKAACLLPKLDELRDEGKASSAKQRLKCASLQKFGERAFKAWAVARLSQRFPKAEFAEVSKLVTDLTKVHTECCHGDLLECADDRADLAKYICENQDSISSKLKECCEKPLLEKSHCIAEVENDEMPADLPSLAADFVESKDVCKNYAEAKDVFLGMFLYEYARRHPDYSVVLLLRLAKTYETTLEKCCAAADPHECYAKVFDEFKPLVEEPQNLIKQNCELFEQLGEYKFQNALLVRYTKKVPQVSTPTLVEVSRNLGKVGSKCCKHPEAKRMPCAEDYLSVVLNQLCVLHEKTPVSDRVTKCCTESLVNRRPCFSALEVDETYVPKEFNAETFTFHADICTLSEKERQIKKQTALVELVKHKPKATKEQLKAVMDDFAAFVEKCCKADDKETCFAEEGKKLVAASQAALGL", "experiment": "Protein binding by ultrafiltration, HSA", "format": "in vitro ADME", "conditions": "600 μM HSA, CdG 500 ng/ml"}, "[2]": {"test_system": "human α1 acidic glycoprotein (AGP)", "experiment": "Protein binding by ultrafiltration, AGP", "format": "in vitro ADME", "conditions": "45 μM AGP, CdG 500 ng/ml"}, "[3]": {"experiment": "Tissue distribution of CdG to liver and kidney in rats", "format": "in vivo, Male Sprague-Dawley rats", "conditions": "9 h after i.v. or p.o. 1 mg/kg"}, "ETV-resistant HBV": {"test_system": "ETV-resistant HBV", "conditions": "oral 0.02 mg/kg/day, hu-liver-chimeric mice; cited from earlier work"}, "[4]": {"experiment": "Pharmacokinetic study of CdG and ETV oral co-administration in rats", "format": "in vivo", "conditions": "male, Sprague-Dawley, rat, plasma, 1 mg/kg"}, "[5]": {"conditions": "2 days after administration; another study of the authors, ref not given; cited from earlier work"}, "[6]": {"experiment": "Pharmacokinetic study of CdG in rats after i.v. and p.o. administration", "format": "in vivo, Male Sprague-Dawley rats", "conditions": "1 mg/kg; for half-life: t1/2, rats"}, "[7]": {"test_system": "cytochrome P450 (CYP450) enzyme system", "experiment": "Metabolism by CYP450", "format": "in vitro ADME", "conditions": "data not shown"}, "wild-type HBV [8]": {"test_system": "wild-type HBV", "conditions": "oral 0.02 mg/kg/day, hu-liver-chimeric mice; cited from earlier work"}, "wild-type HBV [9]": {"test_system": "wild-type HBV", "conditions": "read-out: half-maximal inhibitory concentration (IC50); cited from earlier work"}, "[10]": {"experiment": "Urinary excretion of CdG in rats", "format": "in vivo, Male Sprague-Dawley rats", "conditions": "for amount of unchanged CdG accumulated in urine: 9 h after administration"}, "[11]": {"experiment": "Protein binding by ultrafiltration, human plasma", "format": "in vitro ADME", "conditions": "pooled human plasma"}, "[12]": {"test_system": "cytochrome P450 (CYP450) enzyme system", "conditions": "cited from earlier work"}, "[13]": {"conditions": "rat, in vivo, po; cited from earlier work"}, "[14]": {"conditions": "male, Sprague-Dawley, rat, plasma, iv"}, "[15]": {"conditions": "male, Sprague-Dawley, rat, plasma, po"}}, "note": "“Also recorded” adds a separate entry of the source."}
{"smiles": "N#C[C@]1(CO)O[C@@H](n2cnc3c(=O)[nH]c(N)nc32)C[C@@H]1O", "note": "[CdG, 4′-cyano-2′-deoxyguanosine]", "values": [{"measurement": "binding rate to HSA", "setting": "[1]", "value": "about 11.6 ± 0.01%"}, {"measurement": "binding rate to AGP", "setting": "[2]", "value": "about 13.5 ± 0.01%"}, {"measurement": "distribution to liver vs kidney", "setting": "[3]", "value": "higher levels of CdG were distributed to the liver than the kidney; also recorded: distributed to the liver rather than kidney"}, {"measurement": "replication of ETV-resistant HBV", "setting": "ETV-resistant HBV", "value": "significantly blocked"}, {"measurement": "Tmax", "setting": "[4]", "value": 45, "unit": "min"}, {"measurement": "amount accumulated in the urine, % of the given dose", "setting": "[5]", "value": "about 40%"}, {"measurement": "AUC", "setting": "[6]; [14]", "value": "123 ± 28.1", "unit": "ng·h/mL"}, {"measurement": "MRT", "setting": "[6]; [14]", "value": "29.4 ± 3.6", "unit": "min"}, {"measurement": "Vd", "setting": "[6]; [14]", "value": "4.08 ± 0.62", "unit": "L/kg"}, {"measurement": "clearance", "setting": "[6]; [14]", "value": 141, "unit": "mL/min/kg"}, {"measurement": "half-life", "setting": "[6]; [14]", "value": 30, "unit": "min"}, {"measurement": "AUC", "setting": "[6]; [15]", "value": "90.1 ± 5.75", "unit": "ng·h/mL"}, {"measurement": "CL/F", "setting": "[6]; [15]", "value": 185, "unit": "mL/min/kg"}, {"measurement": "Cmax", "setting": "[6]; [15]", "value": "53.8 ± 8.63", "unit": "ng/mL"}, {"measurement": "MRT", "setting": "[6]; [15]", "value": "82.8 ± 7.2", "unit": "min"}, {"measurement": "Tmax", "setting": "[6]; [15]", "value": 45, "unit": "min"}, {"measurement": "half-life", "setting": "[6]; male, Sprague-Dawley, rat, plasma, po, CdG alone", "value": 42, "unit": "min"}, {"measurement": "time to reach undetectable plasma levels after administration", "setting": "[6]; rats, i.v. and p.o.", "value": "≤ 9", "unit": "h"}, {"measurement": "t1/2", "setting": "[6]; rats, p.o., CdG alone", "value": "43.8 ± 7.2", "unit": "min"}, {"measurement": "metabolism by CYP450", "setting": "[7]", "value": "rarely metabolized by CYP450"}, {"measurement": "replication of wild-type HBV", "setting": "wild-type HBV [8]", "value": "significantly blocked"}, {"measurement": "IC50", "setting": "wild-type HBV [9]", "value": 400, "unit": "pM"}, {"measurement": "form excreted into the urine", "setting": "[10]; LC/MS chromatographic profile of urine", "value": "unchanged form"}, {"measurement": "urinary excretion, % of the given dose", "setting": "[10]; i.v. 1 mg/kg, 9 h", "value": 45, "unit": "%"}, {"measurement": "amount of unchanged CdG accumulated in urine", "setting": "[10]; i.v. 1 mg/kg", "value": "about 113 μg"}, {"measurement": "amount of unchanged CdG accumulated in urine", "setting": "[10]; p.o. 1 mg/kg", "value": "~49", "unit": "µg"}, {"measurement": "fraction unbound at 500 ng/ml", "setting": "[11]", "value": "~0.393"}]}
{"smiles": "C=C1[C@H](CO)[C@@H](O)C[C@@H]1n1cnc2c(=O)[nH]c(N)nc21", "note": "[ETV, entecavir]", "values": [{"measurement": "substrate for the CYP450 enzyme system", "setting": "[12]", "value": "not a substrate"}, {"measurement": "bioavailability", "setting": "[13]", "value": "approximately 78%"}]}
{"smiles": "CC(C)(C)C(=O)OCOP(=O)(COCCn1cnc2c(N)ncnc21)OCOC(=O)C(C)(C)C", "note": "[adefovir dipivoxil]", "values": [{"measurement": "bioavailability", "setting": "[13]", "value": "approximately 50%"}]}
